Assays:
[1] = system: 3T3 fibroblasts cells (NIH 3T3 fibroblast cell line)
Protocol: Cytocompatibility was evaluated by culturing 3T3 fibroblasts cells (NIH 3T3 fibroblast cell line) in diacid- and/or polymer-containing medium at concentrations of 0.10 and 0.01 mg/mL Cell culture medium consisted of Dulbecco's modified Eagle's medium (DMEM), 10 vol. % fetal bovine serum (Atlanta Biologicals, Lawrenceville, Ga.), 1% 1-glutamate, and 1% penicillin/streptomycin. Fibroblasts were seeded at a density of 2,000 cells/well in 96 well plates containing 150 μL of culture medium. The positive control consisted of fibroblasts with cell culture media only and the negative control consisted of fibroblasts with cell culture media and 5% 200-proof ethanol (PHARMCO-AAPER). […] Cell viability was determined by using Calcein AM and ethidium homodimer-1 staining (Molecular Probes) according to the manufacturer's protocol and the results normalized to the positive control. […] Experiments were performed in quadruplicates.

[2] = 37° C., pH 7.4 buffer, HPLC
Protocol: The system was connected to a Dell computer running Empire software. Samples were filtered using 0.22 μm poly(vinylidine fluoride) syringe filters (Fisher). […] Mobile phase used was composed of 50 mM KH2PO4, 2.5 mM sodium dodecyl sulfate, 25% acetonitrile, 75% water at pH 3.
In vitro degradation studies. Diacid 3 (5.0 mg, triplicate) was placed into scintillation vials and 20.00 mL phosphate buffered saline (PBS) pH 7.4 added. Samples were incubated at 37° C. under constant shaking (60 rpm) in an Excella E25 Incubator Shaker (New Brunswick Scientific). PBS (1.00 mL) was removed at predetermined time points (2 h, 5 h, 10 h, and daily starting on day 1) and replaced with fresh PBS (1.00 mL). The pH was checked using an Accumet® Research AR15 pH meter (Fisher Scientific) and adjusted using 0.50 M NaOH when needed. Samples were immediately analyzed by HPLC using the conditions outlined above.
Samples were incubated at 37° C. under constant shaking (60 rpm) in an Excella E25 Incubator Shaker (New Brunswick Scientific). PBS (20.00 mL) was removed daily and replaced with fresh PBS. Samples were analyzed by HPLC.

SMILES: CN1CC[C@]23c4c5ccc(OC(=O)CCCC(=O)O)c4O[C@H]2[C@@H](OC(=O)CCCC(=O)O)C=C[C@H]3[C@H]1C5 [Diacid 3]
- cell viability vs positive control (FIG. 7A) ([1]; 0.10 mg/mL, 95% confidence level): no statistical differences
- cytotoxicity towards fibroblasts ([1]; 0.10 and 0.01 mg/mL): non-cytotoxic
- cell viability vs positive control (statistical analysis) ([1]; 0.10 and 0.01 mg/mL, 24, 48 and 72 h, 95% confidence level): no significant differences
- hydrolytic degradation pathway [2]: hydrolyzes into a monoacid

— US20140030341A1, “POLYMERS AND METHODS FOR THE TREATMENT OF PAIN” (RUTGERS, THE STATE UNIVERSITY OF NEW JERSEY, priority 2011, published 2014)
